The results in this text go back to US7799812B2, “Reverse isoxazoles” (Novartis AG, priority 2006, dated 2010).

This assay deals with T1, human EDG-1 (S1P1) (Homo sapiens, UniProt P21453).
T1 construct: c-myc (N); expressed in transfected cells
Description: S1P1 (EDG-1) GTP [γ-35S] binding assay, membranes from CHO cells. It counts as biochemical. The procedure: A. In vitro: GPCR Activation Assay Measuring GTP [γ-^35S] Binding to Membranes Prepared from CHO Cells Expressing Human EDG Receptors
S1P1 (EDG-1) GTP [γ-^35S] binding assay: Homogenized membranes are prepared from CHO cell clones stably expressing a human EDG-1 N-terminal c-myc tag. Cells are grown in suspension in two 850 cm^2 roller bottles for three or fours days before harvesting. The cells are centrifuged down, washed once with cold PBS, and resuspended in ≦20 ml of Buffer A (20 mM HEPES, pH 7.4, 10 mM EDTA, EDTA-free complete protease inhibitor cocktail [1 tablet/25 ml]). The cell suspension is homogenized on ice, using a Polytron homogenizer at 30000 rpm at three intervals of 15 seconds each. The homogenate is first centrifuged at 2000 rpm on a tabletop low speed centrifuge for 10 minutes. The supernatant, after passing through a cell strainer, is then re-centrifuged at 50,000×g for 25 minutes at 4° C. The pellet is resuspended into buffer B (15% glycerol, 20 mM HEPES, pH 7.4, 0.1 mM EDTA, EDTA-free complete protease inhibitor cocktail [1 tablet/10 ml]). Protein concentration of the preparation is determined using the BCA Protein Assay kit (Pierce) using BSA as standard. The membranes are aliquoted and kept frozen at −80° C.
Solutions of test compounds ranging from 10 mM to 0.01 nM are prepared in DMSO. S1P is diluted in 4% BSA solution as positive controls. The desired amount of membrane preparation is diluted with ice-cold assay buffer (20 mM HEPES, pH 7.4, 100 mM NaCl, 10 mM MgCl2, 0.1% Fatty acid-free BSA, 5 μM GDP) and vortexed well. 2 μl or less of compound is distributed into each well of a round-bottom 96-well polystyrene assay plate, followed by addition of 100 μl of diluted membranes (3-10 μg/well) and kept on ice until the addition of hot GTPγS. [^35S]-GTPγS is diluted 1:1000 (v/v) with cold assay buffer and 100 μl is added into each well. The reaction is carried out at room temperature for 90 minutes before the membranes are harvested onto Perkin-Elmer Unifilter® GF/B-96 filter plate using a Packard Filtermate Harvester. […]

T1 sequence (P21453 whole entry): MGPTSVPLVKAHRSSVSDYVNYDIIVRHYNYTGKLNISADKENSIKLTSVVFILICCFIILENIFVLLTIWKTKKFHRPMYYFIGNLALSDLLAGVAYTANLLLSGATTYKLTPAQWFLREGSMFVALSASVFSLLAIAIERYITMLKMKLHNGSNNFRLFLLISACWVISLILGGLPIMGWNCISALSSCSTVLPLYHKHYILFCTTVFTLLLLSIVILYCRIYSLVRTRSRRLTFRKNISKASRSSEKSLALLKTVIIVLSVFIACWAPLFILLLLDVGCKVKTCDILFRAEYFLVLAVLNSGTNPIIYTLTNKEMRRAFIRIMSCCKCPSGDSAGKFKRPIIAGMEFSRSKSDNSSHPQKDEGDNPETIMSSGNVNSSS

The term EC50 denotes the midpoint of the concentration-response curve. A high value points to a less potent agent. `O=C(O)CCC(=O)Nc1ccc(-c2nc(-c3ccc(C4CCCCC4)c(C(F)(F)F)c3)no2)cc1` [Example 21] gave an EC50 of less than 1000 nM.

For the compound `O=C(O)CCNS(=O)(=O)c1ccc(-c2nc(-c3ccc(-c4ccccc4)c(C(F)(F)F)c3)no2)cc1` [Example 4, 3-{4-[3-(2-Trifluoromethyl-biphenyl-4-yl)-[1,2,4]oxadiazol-5-yl]-benzene-sulfonylamino}-propionic acid], the EC50 is less than 1000 nM.

The compound `NS(=O)(=O)c1ccc(-c2nc(-c3ccc(-c4ccccc4)c(C(F)(F)F)c3)no2)cc1` [Example 13] came in with an EC50 of less than 1000 nM.
